Data on 29 compounds can be found in patent US4021481A, “Amido derivatives of 2,4,6-triiodobenzoic acids containing at least one N-hydroxyalkyl and at least two hydroxyl groups” (Nyegaard & Co. A/S, priority 1969, dated 1977).

SMILES strings stand for the structures. Converted amounts (≈) assume the structure as drawn. Read-outs that look alike come from different tables or passages of the source.

In data set [1] the test system is mice. As to the kind of experiment: Intravenous toxicity in mice (LD50). In kind it is in vivo. The source says: (§1) As indicated above, the new non-ionic compounds according to the invention have shown markedly low levels of toxicity, especially in intracerebral tests. […] It will be seen that all the new compounds listed are very much better than the known compounds in the intracerebral test.
(§2) Intravenous and Intracerebral Toxicity
(§3) Most of the compounds were so inert that it was not physically possible to inject sufficient substance to kill 50% of the mice and in such cases only a minimum value can be given for the LD50.

A further data set in a line: Solubility in water. In kind it is physicochemical. As to conditions: for solubility: water.
The test system of data set [2] is mice. As to the kind of experiment: Intracerebral toxicity in mice (LD50). In kind it is in vivo.
From the text: as §1, §2, §3

The mark [3] stands for this setting: room temperature, read-out: Solubility in water at room temperature (class).
Where [4] appears, read: 300 mgI/ml, dose 0.10 ml/20 g mouse.
[5] abbreviates: room temperature, figure in parentheses, read-out: Solubility in water at room temperature.
Where [6] appears, read: known compounds, dose 0.05 ml/20 g mouse, concentration not given.
[7] abbreviates: concentration administered 300 mgI/ml.
[8] abbreviates: concentration administered 280 mgI/ml, N-methylglucamine salt.
[9] abbreviates: 400 mgI/ml, dose 0.05 ml/20 g mouse.

Usually solubility stands for how much of the substance goes into solution per volume. As to `CC(=O)N(CCO)c1c(I)c(C(=O)N[C@H]2C(O)O[C@H](CO)[C@@H](O)[C@@H]2O)c(I)c(N(CCO)C(C)=O)c1I` (stereo partly drawn) [Compound 12, N-[N,N'-di-(β-hydroxyethyl)-3,5-diacetamido-2,4,6-triiodobenzoyl]-glucosamine], the “Intravenous LD50” value with mice [1] (concentration administered 300 mgI/ml, dose 0.8 ml/20 g mouse) is over 12000 mgI/kg. In addition, the solubility in “Solubility in water” (setting [3]) was over 500 mg/mL. Besides, in the data set on mice [2] (setting [4]), the “Intracerebral LD50” value is over 1500 mgI/kg.

Consider `O=S(=O)(CI)N(CCO)CCO` [Compound 29, N-(Iodomethanesulphonyl)-diethanolamine], for which, in “Solubility in water” (cold water, in words), the “Solubility in cold water” value was “sparingly soluble in cold”. For the same compound, in the data set “Solubility in water” (in words), the “Solubility in hot water” value is listed as “Soluble in hot water”.

As for `CNC(=O)c1c(I)c(NC(C)=O)c(I)c(C(=O)N[C@H]2C(O)O[C@H](CO)[C@@H](O)[C@@H]2O)c1I` (stereo partly drawn) [Compound 19, N-(3-acetamido-5-N-methylcarbamoyl-2,4,6-triiodobenzoyl)-D-glucosamine], in the data set “Solubility in water” (28°, read-out: Solubility in water at 28°), the solubility turned out to be 14 mg/mL (≈ 18.1 mM).

Consider `CC(=O)Nc1c(I)c(C(=O)N(CCO)CCO)c(I)c(N(C)C(C)=O)c1I` [Compound 34, N-(N-methyl-3,5-diacetamido-2,4,6-triiodobenzoyl)-N,N-di-(β-hydroxyethyl)-amine], for which the solubility was 213 mg/mL (≈ 298 mM) in the data set “Solubility in water” (setting [5]) and 200 to 500 mg/mL (≈ 280 to 699 mM) in “Solubility in water” (setting [3]).

On to `CC(=O)N(C)c1c(I)c(C(=O)NCCO)c(I)c(N(CCO)C(C)=O)c1I` [Compound 37, N-[3-N-methylacetamido-5-N-(β-hydroxyethyl)-acetamido-2,4,6-triiodobenzoyl]-ethanolamine], for which the results for the solubility in the data set “Solubility in water” (setting [5]) and in the data set “Solubility in water” (setting [3]) were 4 mg/mL (≈ 5.59 mM) and under 200 mg/mL, respectively.

As for `O=S(=O)(O)CI` [Iodomethanesulphonic acid, reference compound], the “Intracerebral LD50” value with mice [2] (setting [6]) was determined as 195 mgI/kg.

As to `CC(=O)OCCN(C(C)=O)c1c(I)c(C(=O)N(C)C[C@H](O)[C@@H](O)[C@H](O)[C@H](O)CO)c(I)c(N(C)C(C)=O)c1I` [Compound 36, N-[3-N-methylacetamido-5-N-(β-acetoxyethyl)-acetamido-2,4,6-triiodobenzoyl]-N-methylglucamine], the solubility in the data set “Solubility in water” (setting [3]) fell in the range of 200 to 500 mg/mL (≈ 224 to 561 mM).

`CC(=O)N(C)c1c(I)cc(I)c(C(=O)N[C@H]2C(O)O[C@H](CO)[C@@H](O)[C@@H]2O)c1I` (stereo partly drawn) [Compound 32, N-(3-N-methylacetamido-2,4,6-triodobenzoyl)-D-glucosamine]: the solubility in the data set “Solubility in water” (setting [3]) is over 500 mg/mL.

For `CNC(=O)c1c(I)c(NC(C)=O)c(I)c(C(=O)N(CCO)C[C@H](O)[C@@H](O)[C@H](O)[C@H](O)CO)c1I` [Compound 49, N-(3-Acetamido-5-N-methylcarbamoyl-2,4,6-triiodobenzoyl)-N-(2-hydroxyethyl)-glucamine], the “Intravenous LD50” value with mice [1] (setting [7]) worked out at 15000 mgI/kg. Moreover, the “Intracerebral LD50” value in the data set on mice [2] (setting [4]) is listed as over 1500 mgI/kg.

On to `CC(=O)Nc1c(I)c(NC(C)=O)c(I)c(C(=O)N(C)C[C@H](O)[C@@H](O)[C@H](O)[C@H](O)CO)c1I` [Compound 25, N-(3,5-diacetamido-2,4,6-triiodobenzoyl)-N-methyl-glucamine], for which the solubility was 79 mg/mL (≈ 99.9 mM) in “Solubility in water” (setting [5]) and under 200 mg/mL in “Solubility in water” (setting [3]).

With `CC(=O)N(C)c1c(I)c(C(=O)NC(CO)(CO)CO)c(I)c(N(CCO)C(C)=O)c1I` [Compound 41, N-[3-N-methylacetamido-5-N-(β-hydroxyethyl)-acetamido-2,4,6-triiodobenzoyl]-N-[tris-(hydroxymethyl)-methyl]-amine], the solubility in “Solubility in water” (setting [5]) is 8.6 mg/mL (≈ 11.1 mM); in the data set “Solubility in water” (setting [3]), under 200 mg/mL.

As to `CC(=O)N(C)c1c(I)c(C(=O)N[C@H]2C(O)O[C@H](CO)[C@@H](O)[C@@H]2O)c(I)c(N(CCO)C(C)=O)c1I` (stereo partly drawn) [Compound 10, N-[3-N-(β-hydroxyethyl)-acetamido-5-N-methylacetamido-2,4,6-triiodobenzoyl]-glucosamine], the “Intravenous LD50” value with mice [1] (setting [7]) is 8250 mgI/kg. Further, the solubility in the data set “Solubility in water” (setting [3]) was over 500 mg/mL. In addition, the “Intracerebral LD50” value is over 750 mgI/kg in the data set on mice [2] (300 mgI/ml, dose 0.05 ml/20 g mouse) and over 1500 mgI/kg in the data set on mice [2] (setting [4]).

Regarding `CC(=O)N(C)c1c(I)c(C(=O)N(C)CCO)c(I)c(N(CCO)C(C)=O)c1I` [Compound 38, N-[3-N-methylacetamido-5-N-(β-hydroxyethyl)-acetamido-2,4,6-triiodobenzoyl]-N-methylethanolamine], the solubility in “Solubility in water” (setting [5]) was 255 mg/mL (≈ 350 mM); in the data set “Solubility in water” (setting [3]), 200 to 500 mg/mL (≈ 274 to 686 mM).

For the compound `CC(=O)NCc1c(I)c(NC(C)=O)c(I)c(C(=O)N(C)C[C@H](O)[C@@H](O)[C@H](O)[C@H](O)CO)c1I` [Compound 7, N-(3-Acetamido-5-acetamidomethyl-2,4,6-triiodobenzoyl)-N-methylglucamine], the solubility in the data set “Solubility in water” (setting [3]) was over 500 mg/mL.

On to `CC(=O)Nc1c(I)c(NC(C)=O)c(I)c(C(=O)N[C@H]2C(O)O[C@H](CO)[C@@H](O)[C@@H]2O)c1I` (stereo partly drawn) [Compound 14, N-(3,5-diacetamido-2,4,6-triiodobenzoyl)-glucosamine], for which the solubility in the data set “Solubility in water” (setting [3]) was over 500 mg/mL.

Regarding `CN(C[C@H](O)[C@@H](O)[C@H](O)[C@H](O)CO)S(=O)(=O)CI` [Compound 28, N-(Iodomethane sulphonyl)-N-methylglucamine], the “Solubility in hot water” value in the data set “Solubility in water” (in words) was “Very soluble in hot water”. The solubility in the data set “Solubility in water” (cold water, read-out: Solubility in cold water) is about 100 mg/mL (≈ 250 mM).

As to `CC(=O)N(CCO)c1c(I)c(C(=O)N(CCO)CCO)c(I)c(N(CCO)C(C)=O)c1I` [Compound 5, N-[N,N'-di-(β-hydroxyethyl)-3,5-diacetamido-2,4,6-triiodobenzoyl]-diethanolamine], the solubility in “Solubility in water” (setting [3]) is over 500 mg/mL.

Turning to `CNC(=O)c1c(I)c(NC(C)=O)c(I)c(C(=O)N(C)C[C@H](O)[C@@H](O)[C@H](O)[C@H](O)CO)c1I` [Compound 6], the “Intravenous LD50” value with mice [1] (setting [7]) is reported as 10000 mgI/kg. Moreover, the solubility in the data set “Solubility in water” (setting [3]) was over 500 mg/mL. Also, the “Intracerebral LD50” value in the data set with mice [2] (setting [4]) is recorded as over 1500 mgI/kg.

Take `CNC(=O)c1c(I)c(NC(C)=O)c(I)c(C(=O)O)c1I` [5-Acetamido-2,4,6-triiodo-N-methylisophthalamic acid, reference compound]: the “Intravenous LD50” value with mice [1] (setting [8]) came out at 6000 mgI/kg. The “Intracerebral LD50” value with mice [2] (setting [6]) was 210 mgI/kg.

On to `CC(=O)Nc1c(I)c(C(=O)N[C@@H](CO)[C@@H](O)[C@H](O)[C@H](O)CO)c(I)c(N(C)C(C)=O)c1I` [Compound 15, N-(N-methyl-3,5-diacetamido-2,4,6-triiodobenzoyl)-2-glucamine], for which the “Intravenous LD50” value in the data set on mice [1] (concentration administered 300 mgI/ml, dose 1.0 ml/20 g mouse) is recorded as over 15000 mgI/kg. In addition, the solubility in “Solubility in water” (setting [3]) was over 500 mg/mL. Further, in the data set on mice [2] (setting [4]), the “Intracerebral LD50” value was over 1500 mgI/kg.

`CC(=O)N(CCO)c1c(I)c(C(=O)N(C)C[C@H](O)[C@@H](O)[C@H](O)[C@H](O)CO)c(I)c(N(CCO)C(C)=O)c1I` [Compound 43, N-[3,5-bis-N-(β -hydroxyethyl)-acetamido-2,4,6-triiodobenzoyl]-N-methylglucamine]: the “Intravenous LD50” value in the data set with mice [1] (setting [7]) is given as 7500 mgI/kg. The solubility in the data set “Solubility in water” (setting [3]) was over 500 mg/mL. Besides, the “Intracerebral LD50” value is over 1000 mgI/kg with mice [2] (setting [9]) and over 2000 mgI/kg in the data set on mice [2] (400 mgI/ml, dose 0.10 ml/20 g mouse).

Take `CC(=O)N(C)c1c(I)c(C(=O)NCC(O)CO)c(I)c(N(CCO)C(C)=O)c1I` (stereo not drawn) [Compound 40, N-[3-N-methylacetamido-5-N-(β-hydroxyethyl)-acetamido-2,4,6-triiodobenzoyl]-N-(2,3-dihydroxypropyl)-amine]: the solubility in the data set “Solubility in water” (setting [5]) is 2.6 mg/mL (≈ 3.49 mM); in “Solubility in water” (setting [3]), under 200 mg/mL.

In the case of `CC(=O)N(C)c1c(I)cc(I)c(C(=O)N(C)C[C@H](O)[C@@H](O)[C@H](O)[C@H](O)CO)c1I` [Compound 31, N-(3-N-methylacetamido-2,4,6-triiodobenzoyl)-N-methylglucamine], the solubility in “Solubility in water” (setting [3]) is over 500 mg/mL.

In the case of `CC(=O)N(C)c1c(I)cc(I)c(C(=O)NC[C@H](O)[C@@H](O)[C@H](O)[C@H](O)CO)c1I` [Compound 1, N-(3-N-methylacetamido-2,4,6-triiodobenzoyl)-glucamine], the solubility in “Solubility in water” (setting [3]) is over 500 mg/mL.

Turning to `CC(=O)Nc1c(I)cc(I)c(C(=O)N(C)C[C@H](O)[C@@H](O)[C@H](O)[C@H](O)CO)c1I` [Compound 30, N-(3-acetamido-2,4,6-triiodobenzoyl)-N-methyl-glucamine], in “Solubility in water” (setting [3]), the solubility is over 500 mg/mL.

With `CC(=O)N(C)c1c(I)c(C(=O)N(CCO)CCO)c(I)c(N(CCO)C(C)=O)c1I` [Compound 39, N-[3-N-methylacetamido-5-N-(β-hydroxyethyl)-acetamido-2,4,6-triiodobenzoyl]-diethanolamine], in “Solubility in water” (setting [3]), the solubility was over 500 mg/mL.

With `CC(=O)N(CCO)c1c(I)c(C(=O)NCCO)c(I)c(N(CCO)C(C)=O)c1I` [Compound 45, N-[3,5-bis-N-(β-hydroxyethyl)-acetamido-2,4,6-triiodobenzoyl]-ethanolamine], the solubility in the data set “Solubility in water” (setting [5]) was 214 mg/mL (≈ 287 mM); in the data set “Solubility in water” (setting [3]), 200 to 500 mg/mL (≈ 268 to 671 mM).

Turning to `CC(=O)N(C)c1c(I)c(C(=O)N(C)CC(O)CO)c(I)c(N(CCO)C(C)=O)c1I` (stereo not drawn) [Compound 4, N-[3-N-(β-hydroxyethyl)-acetamido-5-N-methylacetamido-2,4,6-triiodobenzoyl]-N-methyl-2,3-dihydroxypropylamine], the solubility in the data set “Solubility in water” (setting [3]) is over 500 mg/mL. The “Intracerebral LD50” value in the data set on mice [2] (setting [9]) was over 1000 mgI/kg.

Regarding `CC(=O)Nc1c(I)c(C(=O)O)c(I)c(N(C)C(C)=O)c1I` [N-Methyl-3,5-diacetamido-2,4,6-triiodobenzoic acid, reference compound], the “Intravenous LD50” value with mice [1] (setting [8]) was found to be 6000 mgI/kg. Moreover, in the data set with mice [2] (setting [6]), the “Intracerebral LD50” value stood at 130 mgI/kg.
